Reference: patent publication US9532947B2, “Formulation for oral transmucosal administration of analgesic and/or antispasmodic molecules” (priority 2009, dated 2017)

Tests used:
[1] = oral/digestive route, cited from earlier work; for fraction of the orally administered dose that is truly bioavailable (residual part reaching the smooth muscular membranes): coated pill or ODT form, on average at best
[2] = Complete dissolution of active principle in approximately 40° ethanol (dissolution coefficient); type: physicochemical
Text: The expression “stable and completely dissolved state” refers to a solution state rendering the active principle in the molecular and weakly ionized state in its solution medium, this solution state preventing any possibility of inopportune recrystallization. This stable and completely dissolved state may be monitored immediately on use of the formulation of the invention by evaluating the visual appearance of the solution obtained (measurement of the degree of limpidity), then at the level of the filtration residues (appearance or non-appearance of crystals), and finally in the medium-term and long-term during stability tracking tests at varying temperatures and relative humidities.
By way of illustration, the dissolution coefficient of phloroglucinol in ethanol makes it possible to obtain complete dissolution of said active principle at the rate of 20 milligrams (mg) of phloroglucinol in 0.75 mL of approximately 40° ethanol.
Similarly, the coefficient of dissolution of tiemonium methylsulfate in ethanol makes it possible to obtain complete dissolution of said active principle at the rate of 10 mg of tiemonium in 0.75 mL of approximately 40° ethanol. The coefficient of dissolution of nefopam in ethanol makes it possible to obtain complete dissolution of said active principle at the rate of 20 mg of nefopam in 1 mL of approximately 40° ethanol.

| Structure (SMILES) | fraction of the orally administered dose that is truly bioavailable (residual part reaching the smooth muscular membranes) [1] | complete dissolution of active principle at the rate of [2] | truly bioavailable dose of active principle resorbed by the digestive tract ([1]; all three main metabolites have no pharmacological activity) |
| --- | --- | --- | --- |
| COS(=O)(=O)[O-].C[N+]1(CCC(O)(c2ccccc2)c2cccs2)CCOCC1 (stereo not drawn) [tiemonium, tiemonium methylsulfate] | 10% to 15 | 10 mg in 0.75 mL | – |
| CN1CCOC(c2ccccc2)c2ccccc2C1 (stereo not drawn) [nefopam] | – | 20 mg in 1 mL | virtually nil |
| Oc1cc(O)cc(O)c1 [phloroglucinol] | 40% to 50 | 20 mg in 0.75 mL | – |
